Conditions: 283.15 K, Liquid, Vibrating tube method

CCCCC(=O)OCC(COC(=O)CCCC)(COC(=O)CCCC)COC(=O)CCCC [pentaerythritol tetrapentanoate]
Conditions | mass density [kg/m3]
5629.7 kPa | 1030.4
5659.1 kPa | 1030.3
5688.1 kPa | 1030.4
5723.9 kPa | 1030.4
5754.6 kPa | 1030.5
5779.1 kPa | 1030.6
5803 kPa | 1030.5
5832 kPa | 1030.5
5856.1 kPa | 1030.5
5881 kPa | 1030.5
5906.4 kPa | 1030.5
5936.8 kPa | 1030.5
5961.9 kPa | 1030.6
5987.7 kPa | 1030.6
6018.4 kPa | 1030.5
6044.4 kPa | 1030.6
6070.3 kPa | 1030.6
6097.3 kPa | 1030.6
6128.9 kPa | 1030.6
6155.9 kPa | 1030.8
6188.9 kPa | 1030.7
6217.1 kPa | 1030.7
6245.2 kPa | 1030.6
6273.6 kPa | 1030.7
6301.9 kPa | 1030.7
6336.3 kPa | 1030.8
6365.5 kPa | 1030.8
6395.6 kPa | 1030.8
6431.7 kPa | 1030.9
6462.7 kPa | 1030.8
6491.7 kPa | 1030.9
6519.4 kPa | 1030.9
6542.3 kPa | 1030.9
6565.5 kPa | 1031
6593.5 kPa | 1031.1
6616.8 kPa | 1031
6640.3 kPa | 1031
6668.5 kPa | 1031
6692.7 kPa | 1031
6717.5 kPa | 1031.1
6741.9 kPa | 1031
6771.1 kPa | 1031.1
6796.3 kPa | 1031.1
6820.7 kPa | 1031
6850.6 kPa | 1031
6876.8 kPa | 1031.1
6902.9 kPa | 1031.1
6929.7 kPa | 1031.2
6961.3 kPa | 1031.2
6989.3 kPa | 1031.2
7017.1 kPa | 1031.2
7043.5 kPa | 1031.2
7061.5 kPa | 1031.2
7079.3 kPa | 1031.1
7097.4 kPa | 1031.2
7118.7 kPa | 1031.2
7234.2 kPa | 1031.4
7256.3 kPa | 1031.3
7276 kPa | 1031.3
7295 kPa | 1031.3
7315.5 kPa | 1031.4
7334.8 kPa | 1031.4
7354.5 kPa | 1031.4
7377.5 kPa | 1031.5
7396.8 kPa | 1031.4
7420.6 kPa | 1031.4
7440.5 kPa | 1031.5
7460.5 kPa | 1031.4
7480.2 kPa | 1031.4
7504.4 kPa | 1031.5
7525.1 kPa | 1031.4
7592.3 kPa | 1031.6
7634.1 kPa | 1031.5
7655.5 kPa | 1031.6
7680.7 kPa | 1031.4
7702.1 kPa | 1031.7
7723.5 kPa | 1031.5
7745.1 kPa | 1031.6
7771 kPa | 1031.6
7792.7 kPa | 1031.7
7814.7 kPa | 1031.6
7836.8 kPa | 1031.7
7863.9 kPa | 1031.6
7886.1 kPa | 1031.7
7909.2 kPa | 1031.7
8005.6 kPa | 1031.7
8079.8 kPa | 1031.9
8132.6 kPa | 1031.8
8156.2 kPa | 1031.8
8209.7 kPa | 1031.8
8234 kPa | 1031.8
8258.7 kPa | 1031.9
8283.5 kPa | 1031.9
8312.9 kPa | 1031.9
8337.9 kPa | 1031.8
8363.2 kPa | 1031.9
8393.6 kPa | 1032
8418.8 kPa | 1032.2
8444.3 kPa | 1031.9
8474.7 kPa | 1032
8501.2 kPa | 1032.1
8527.8 kPa | 1032
8554.5 kPa | 1032
8586.3 kPa | 1032.1
8612.5 kPa | 1032
8644.9 kPa | 1032.2
8671.8 kPa | 1032.2
8698.7 kPa | 1032.2
8726 kPa | 1032.1
8759.1 kPa | 1032
8787 kPa | 1032.2
8815 kPa | 1032.2
8848.6 kPa | 1032.3
8877 kPa | 1032.2
8906.3 kPa | 1032.3
8934.4 kPa | 1032.3
8969.3 kPa | 1032.3
8998.4 kPa | 1032.4
9027.7 kPa | 1032.3
9092.4 kPa | 1032.4
9158.9 kPa | 1032.3
9189.8 kPa | 1032.4
9220.8 kPa | 1032.6
9257.3 kPa | 1032.5
9288.4 kPa | 1032.5
9320.3 kPa | 1032.4
9599.3 kPa | 1032.6
9632.7 kPa | 1032.7
9666.3 kPa | 1032.8
9707.5 kPa | 1032.7
9743 kPa | 1032.7
9779.3 kPa | 1032.7
9813.6 kPa | 1032.9
9848.6 kPa | 1032.9
9891.1 kPa | 1032.8
9926.8 kPa | 1032.8
9963 kPa | 1032.8
10006 kPa | 1032.8
10044 kPa | 1032.9
10125 kPa | 1032.9
10200 kPa | 1033.1
10248 kPa | 1033
10286 kPa | 1033
10324 kPa | 1033.1
10363 kPa | 1033
10410 kPa | 1033.1
10449 kPa | 1033.2
10489 kPa | 1033.1
10537 kPa | 1033.2
10577 kPa | 1033.2
10619 kPa | 1033.3
10668 kPa | 1033.3
10710 kPa | 1033.4
10753 kPa | 1033.3
10805 kPa | 1033.3
10848 kPa | 1033.4
10894 kPa | 1033.3
10948 kPa | 1033.3
10990 kPa | 1033.4
11025 kPa | 1033.4
11059 kPa | 1033.4
11099 kPa | 1033.5
11132 kPa | 1033.6
11173 kPa | 1033.5
11207 kPa | 1033.7
11241 kPa | 1033.5
11283 kPa | 1033.7
11318 kPa | 1033.6
11354 kPa | 1033.6
11389 kPa | 1033.7
11432 kPa | 1033.7
11468 kPa | 1033.7
11505 kPa | 1033.8
11549 kPa | 1033.8
11586 kPa | 1033.7
11623 kPa | 1033.9
11661 kPa | 1033.8
11706 kPa | 1034
11743 kPa | 1033.8
11782 kPa | 1033.9
11828 kPa | 1034
11867 kPa | 1033.9
11906 kPa | 1033.9
11992 kPa | 1034.1
12032 kPa | 1034
12080 kPa | 1034.1
12120 kPa | 1034.1
12161 kPa | 1034.1
12211 kPa | 1034.3
12253 kPa | 1034.1
12295 kPa | 1034
12348 kPa | 1034.2
12392 kPa | 1034.2
12436 kPa | 1034.2
12474 kPa | 1034.3
12515 kPa | 1034.4
12549 kPa | 1034.3
12589 kPa | 1034.4
12624 kPa | 1034.4
12659 kPa | 1034.5
12695 kPa | 1034.5
12739 kPa | 1034.4
12775 kPa | 1034.3
12815 kPa | 1034.6
12841 kPa | 1034.5
12867 kPa | 1034.5
12897 kPa | 1034.5
12922 kPa | 1034.5
12949 kPa | 1034.5
12974 kPa | 1034.6
13005 kPa | 1034.5
13031 kPa | 1034.6
13058 kPa | 1034.5
13089 kPa | 1034.5
13115 kPa | 1034.7
13142 kPa | 1034.6
13174 kPa | 1034.6
13203 kPa | 1034.7
13230 kPa | 1034.9
13257 kPa | 1034.7
13285 kPa | 1034.8
13317 kPa | 1034.8
13344 kPa | 1034.8
13377 kPa | 1034.8
13404 kPa | 1034.8
13432 kPa | 1034.8
13460 kPa | 1034.9
13493 kPa | 1034.9
13521 kPa | 1034.9
13551 kPa | 1034.9
13580 kPa | 1035
13615 kPa | 1034.9
13643 kPa | 1034.9
13672 kPa | 1035.1
13701 kPa | 1035
13736 kPa | 1035
13764 kPa | 1035.1
13794 kPa | 1035
13829 kPa | 1035.1
13858 kPa | 1035.1
13893 kPa | 1035.1
13923 kPa | 1035.1
13954 kPa | 1035.2
13984 kPa | 1035.2
14021 kPa | 1035.1
14051 kPa | 1035.3
14082 kPa | 1035.2
14118 kPa | 1035.2
14148 kPa | 1035.3
14186 kPa | 1035.3
14216 kPa | 1035.4
14248 kPa | 1035.3
14279 kPa | 1035.4
14317 kPa | 1035.3
14348 kPa | 1035.4
14380 kPa | 1035.4
14419 kPa | 1035.5
14451 kPa | 1035.4
14490 kPa | 1035.4
14522 kPa | 1035.5
14555 kPa | 1035.4
14588 kPa | 1035.5
14628 kPa | 1035.4
14660 kPa | 1035.5
14694 kPa | 1035.6
14735 kPa | 1035.6
14768 kPa | 1035.7
14808 kPa | 1035.6
14842 kPa | 1035.6
14877 kPa | 1035.7
14912 kPa | 1035.6
14954 kPa | 1035.8
14989 kPa | 1035.5
15024 kPa | 1035.7
15066 kPa | 1035.6
15101 kPa | 1035.7
15137 kPa | 1035.8
15180 kPa | 1035.8
15216 kPa | 1035.8
15252 kPa | 1035.9
15295 kPa | 1036
15333 kPa | 1035.8
15369 kPa | 1036
15414 kPa | 1036.1
15451 kPa | 1036
15488 kPa | 1036
15525 kPa | 1036
15571 kPa | 1036
15609 kPa | 1036.1
15648 kPa | 1036
15694 kPa | 1036.2
15732 kPa | 1036.1
15772 kPa | 1036.1
15819 kPa | 1036.1
15859 kPa | 1036.1
15899 kPa | 1036.2
15938 kPa | 1036.2
15986 kPa | 1036.2
16026 kPa | 1036.4
16067 kPa | 1036.3
16116 kPa | 1036.3
16157 kPa | 1036.3
16199 kPa | 1036.4
16241 kPa | 1036.4
16291 kPa | 1036.5
16333 kPa | 1036.4
16376 kPa | 1036.5
16421 kPa | 1036.5
16472 kPa | 1036.6
16515 kPa | 1036.6
16559 kPa | 1036.5
16611 kPa | 1036.4
16655 kPa | 1036.6
16699 kPa | 1036.7
16753 kPa | 1036.8
16798 kPa | 1036.7
16844 kPa | 1036.7
16900 kPa | 1036.7
16949 kPa | 1036.8
17000 kPa | 1036.7
17050 kPa | 1036.9
